Test results from patent US9603849B2, “Uses of orvepitant” (NERRE THERAPEUTICS LIMITED, priority 2012, dated 2017).

Target: NK-1 receptor (Meriones unguiculatus, UniProt Q5DUB1)
Experiment: GR73632-induced hindlimb scratching behaviour in the Mongolian gerbil
Format: in vivo
Conditions: all doses tested (from 0.1 to 10.0 mg/kg)
Text: 5) Particularly the antipruritic effect of orvepitant maleate was determinated in GR73632-induced scratching behaviour in the Mongolian gerbil. According to this metholody the scratching behaviour was induced by GR73632 which is a specific agonist of the NK-1 receptor.
72 male Mongolian gerbils (58-78 g) after a minimum habituation period of 10 days prior to study commencement, were acclimatised to the procedure room in their home cages, with food and water available ad libitum. The day before the experiment was due to commence a 1 cm×1 cm squared area between the shoulder blades was shaved free of hair.
Habituation to the apparatus (custom made observation chambers; approximately 30×30 cm; 2 animals per observation) took place 30 minutes prior to induction of scratching behaviours using GR73632.
A 10 mg/kg stock solution of orvepitant maleate was made by dissolving 20 mg of orvepitant maleate Form 1 in 20 mls of vehicle (5% DMSO & 95% HPMC (0.5%)). This stock solution was serially diluted to prepare doses of 0.1, 0.3, 1.0, 3.0 or 10 mg/kg orvepitant maleate.
At T=−60 mins mongolian gerbils were dosed with orvepitant maleate (0.1, 0.3, 1.0, 3.0 or, 10 mg/kg p.o.). Gerbils were allocated to dosing groups based on a Latin square design. 30 Minutes later (T=−30 mins) gerbils were placed into the observation chamber for 30 minutes habituation. At T=0 Gerbils were then dosed with GR73632 (30 nmol/100 uL; i.d.) between the shoulder blades and their subsequent hindlimb scratching behaviour recorded using GeoVision surveillance software over a 30 minute period.
Playing back of the video served for counting scratching behaviour. […] Cumulative frequency and duration (secs) of scratching was scored in 5 min epochs. Treatment groups were randomised based on a Latin Square design. The experimenter was blinded to the treatment groups.
Repeated measures ANOVA followed by Planned comparison test using GraphPad Prism. (p<0.05 considered significant). Data were analysed by comparing treatment groups to control group at each time point.

Sequence of NK-1 receptor (Q5DUB1 whole entry): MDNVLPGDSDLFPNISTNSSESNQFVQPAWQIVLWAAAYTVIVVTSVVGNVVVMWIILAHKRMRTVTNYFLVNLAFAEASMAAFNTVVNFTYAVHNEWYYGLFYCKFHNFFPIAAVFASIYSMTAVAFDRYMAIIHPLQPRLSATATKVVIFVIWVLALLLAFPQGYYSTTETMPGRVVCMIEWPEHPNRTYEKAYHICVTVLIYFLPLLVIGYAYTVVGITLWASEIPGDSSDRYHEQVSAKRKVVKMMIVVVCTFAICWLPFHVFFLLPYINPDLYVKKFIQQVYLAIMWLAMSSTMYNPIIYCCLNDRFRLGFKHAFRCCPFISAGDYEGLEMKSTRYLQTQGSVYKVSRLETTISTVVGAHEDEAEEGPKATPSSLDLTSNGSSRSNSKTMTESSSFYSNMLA

inhibition of GR73632 induced hindlimb scratching: profound inhibition
Structure (SMILES): Cc1cc(F)ccc1[C@H]1C[C@@H](N2CCN3C(=O)CC[C@H]3C2)CCN1C(=O)N(C)[C@H](C)c1cc(C(F)(F)F)cc(C(F)(F)F)c1 [Orvepitant, 2-(R)-(4-Fluoro-2-methyl-phenyl)-4-(S)-((8aS)-6-oxo-hexahydro-pyrrolo[1,2-a]-pyrazin-2-yl)-piperidine-1-carboxylic acid [1-(R)-(3,5-bis-trifluoromethyl-phenyl)-ethyl]-methylamide]
